Data set [1] can be described thus: Plasma concentrations (PK) in NMRI mice after SC administration. The format is in vivo. On the procedure:
(§1) NMRI female mice (10–12 weeks old, 29–32 g, n = 64) were obtained from ENVIGO (The Netherlands) and housed prior to treatment under standard conditions (acclimatization period of 1 week, 21–23 °C, 12-h light/dark cycle, relative humidity 45%–65%) with unlimited access to food (R70 diet from Lantmännen) and water. The experimental procedures were performed in accordance with the guidelines of the European Community and local laws and policies (Directive 2010/63/EU), and all of the procedures were approved by Food and Veterinary Service, Riga, Latvia. Studies involving animals are reported in accordance with the ARRIVE guidelines. Animals were weighed on the day of the treatment (before treatment) to calculate the required amount of compound for the corresponding dose. For PK and excretion studies the mice were dosed subcutaneously (SC) via a bolus injection (injection volume 10 mL/kg). Four consecutive doses were administrated twice a day at 9:00 AM and 15:00 PM over the course of two days.
Blood samples were collected in tubes containing heparin. Blood was sampled from tail vein 15, 30, and 45 min after the first and last administrations of the compounds. Tubes were centrifuged at +4 °C 10,000× g for 3 min. Plasma samples were collected and stored at −20 °C until analysis.
(§2) Plasma and urine sample analyses were performed using the quantitative UPLC/MS/MS method. Calibration standards and quality control samples for plasma analysis were prepared by spiking blank mouse plasma (CD-1, anticoagulant Na Heparin, Innovative Research, USA) with a stock solution of analyte to achieve a nominal concentration ranging from 0.01 to 50 μg/mL for NAB739 and PMB. Calibration standards and quality control samples for urine analysis were prepared by spiking blank mouse urine (mouse CD-1 urine, Sera Laboratories International Ltd., UK) with a stock solution of analytes to achieve a nominal concentration from 0.04 to 30 μg/mL for NAB739 and PMB.
(§3) A sample volume of 20 μL (calibration standards, quality controls or analytical samples in plasma or urine) was transferred into the plastic tube and mixed with 100 μL of 1% formic acid solution in acetonitrile/methanol (3:1, v/v) mixture to precipitate proteins. The tubes were vortex- mixed and centrifuged at 10,000 rpm for 10 min. Then, 100 μL of supernatant was diluted with 400 μL of water and subjected to UPLC/MS analysis as follows:
(§4) UPLC system Acquity H-class (Waters) connected with triple quadrupole mass spectrometer Xevo TQ-S (Waters). UPLC conditions: Column—Acquity BEH C18 (2.1 × 50 mm, 1.7 µm); Mobile phase—A: 0.1% Formic acid aqueous solution, B: Acetonitrile; Gradient: Initial—90%A, 2.5 min—5% A, 4.0 min—5% A, 4.5 min—90% A, 6 min—90% A; Flow—0.3 mL/min; Column temperature—40 °C; Injection volume—1 μL (NAB739) or 5 μL (PMB). MS conditions: Ionization—ESI positive mode; Capillary voltage—1.0 kV; ESI source temperature—120 °C; Desolvation gas (N2) flow—800 L/h; Desolvation temperature—600 °C.

The nature of data set [2]: Urinary elimination in NMRI mice after SC administration (pooled 0–3 h urine). The class given is in vivo. On the procedure: as §1
For PK study, before the administration of the compound, mice voiding was stimulated. Then compound was administrated SC. Mice were put in separate cages with LabSand (USA) and urine was collected during the next 3 h. At the end of each 1-h period voiding was stimulated by gentle massage of the belly. Urine samples from each mouse were pooled in one tube. Urine volume was determined by weighing of the pooled urine sample.
as §2, §3, §4

Another data set has as its system E. coli. Conditions: murine E. coli pyelonephritis, cited from earlier work; for Half maximal effective dose (ED50) in kidneys: bacterial burden in kidneys.
For data set [3] the following is noted: cynomolgus monkey, in vivo; cited from earlier work.
The conditions of data set [4]: cynomolgus monkey, in vivo; cited from earlier work. The source holds these as a separate data set.
The nature of data set [5]: Observation of adverse effects during administration in mice. The format is in vivo, NMRI mice. To be noted: SC, doses 0.25, 0.5, 1, 2 and 4 mg/kg, single and four-times-repeated. On the procedure:
as §1

Details of data set [6]: method as in PMID 18840079. Conditions: patients; cited from earlier work.

Positions of bridges follow the written chain, without caps; N, C: chain ends. Non-standard residues stand in square brackets, D forms with d. Residues, ends and D or L forms follow the SMILES beside them. *: point of attachment. Octanoyl = CCCCCCCC(=O)*; Dab = NCC[C@H](N)C(=O)O

In the case of `CCCCCCCC(=O)N[C@H](C(=O)N[C@H](CO)C(=O)N[C@H]1CCNC(=O)[C@H]([C@@H](C)O)NC(=O)[C@H](CCN)NC(=O)[C@H](CCN)NC(=O)[C@H](CC(C)C)NC(=O)[C@@H](Cc2ccccc2)NC(=O)[C@H](CCN)NC1=O)[C@@H](C)O` [NAB739] (Octanoyl-T[dS][Dab][Dab][dF]L[Dab][Dab]T; lactam 3-C; N-terminus assumed), the Plasma concentration result in data set [1] (female, NMRI, mouse, in vivo, sc, 0.5 mg/kg) is on record as “exceeded 1 µg/mL”. Also, in data set [1] (mouse, in vivo, sc), the “Linearity of Cmax and dose–response relationship, correlation coefficient” value was 0.9987. Also, in data set [2] (female, NMRI, mouse, in vivo, sc, 4 mg/kg), the Urinary concentration result was “above 35 µg/mL”. For the same molecule, in data set [2] (mouse, in vivo), the “Relative elimination by urine higher after the last dose than after the first dose, average” value came out at 26% and the “Urine concentration higher after the last dose compared to the first dose, average” value turned out to be 27%. The “Detection in urine samples” value in data set [2] (mouse, in vivo, sc, 4 mg/kg) is reported as “found in all pooled (0–3 h) urine samples”. In the data set with E. coli, the “Half maximal effective dose (ED50) in kidneys” value was 0.24 mg/kg; the “Fold lower dose than PMB reducing bacterial burden in kidney, urine and bladder” value was “approximately 10 fold”. In data set [3], the “Nephrotoxicity compared to PMB” value is reported as “less nephrotoxic”. For the same molecule, the Excretion in urine entry in data set [4] is on record as “excreted in the cynomolgus urine at a very significant extent”.

As for polymyxin B [PMB, reference compound], the “Plasma concentrations after the first versus the last administration” value in data set [1] (SC, four doses) was “similar”. Further, the “Time at which Cmax was observed after administration” value in data set [1] (plasma, SC, all doses 0.25–4 mg/kg) is given as 30 min. The “Linearity of Cmax and dose–response relationship, correlation coefficient” value in data set [1] (plasma, first SC administration, doses 0.25–4 mg/kg) is 0.975. In addition, the “Detection in urine samples” value in data set [2] (SC dose of 4 mg/kg, pooled 0–3 h urine) is on record as “not detected”. The Detection in urine result in data set [2] (after the fourth SC dose at 4 mg/kg, detection limit 0.6 µg/mL) is reported as “not found”. Also, the “Adverse effects during administration” value in data set [5] was “no adverse effects were observed”. The “Half maximal effective dose (ED50) in kidneys” value with E. coli is reported as 2.1 mg/kg. Besides, the “Part of dose excreted in urine” value in data set [6] is “less than 1%”.

These data come from publication PMC7235871, “Excretion of the Polymyxin Derivative NAB739 in Murine Urine” (Antibiotics, 2020).
